US20230099441A1, “HETEROCYCLIC COMPOUND, APPLICATION THEREOF, AND COMPOSITION CONTAINING SAME” (GenEros Biopharma Ltd., priority 2019, published 2023)

Tested on: mouse collagen-induced arthritis model
Experiment: Therapeutic efficacy in a mouse collagen-induced arthritis model (clinical score)
Format: in vivo
Details: for clinical score of arthritis, Mean (the larger the value, the more severe the disease): mean of group, total score 0-12, oral, Methotrexate 0.25 mg/kg once a week, Tofacitinib 5 mg/kg once a day, X8 1 mg/kg once a day
Source text: Example of Effect 2: Evaluation of the Therapeutic Efficacy of X8 Compound in a Mouse Collagen-Induced Arthritis Model
Sixty male DBA/1J mice (9-10 weeks old, H-2q haplotype) were acclimatized in a standard animal room for one week and then randomly divided into 5 groups. Except for the healthy control group, the rest were inoculated with collagen antigen injection, and then received oral treatment with different compounds. The brief procedure was to mix bovine type II collagen (purchased from Chondrex, 20021) with an equal volume of Freund's complete adjuvant (purchased from Sigma, F5881), the concentration was 4 mg/ml, and it was treated with a homogenizer at a speed of 20,000 revolutions/min for 5-10 minutes. A needle was inserted between the left side of the dorsal caudal artery and the lateral vein of the mouse, and 50 microliters of modeling agent was injected subcutaneously. 21 days after the first injection, another injection was injected between the right side of the dorsal tail artery and the lateral vein of the mouse. After the first injection, oral administration was started. The drug was formulated with […] PEG300, and it was prepared for immediate use. […] The total score was between 0-12 points, and the swelling of the foot after vaccination was not calculated.

O=C(Cc1ccc(C(F)(F)F)cc1)N1CCC(n2c(=O)[nH]c3ccccc32)CC1 [Example X8, 1-(1-(2-(4-(trifluoromethyl)phenyl)acetyl)piperidin-4-yl)-1H-benzo[d]imidazole-2(3H)-one]
therapeutic effect on severity of the disease (in words) (X8 1 mg/kg once a day oral, compared with tofacitinib 5 mg/kg once a day): comparable effects to the tofacitinib treatment group, which significantly reduced the severity of the disease
clinical score of arthritis, Mean (the larger the value, the more severe the disease) (day 0): 0.00
clinical score of arthritis, Mean (the larger the value, the more severe the disease) (day 21): 0.00
clinical score of arthritis, Mean (the larger the value, the more severe the disease) (day 25): 0.00
clinical score of arthritis, Mean (the larger the value, the more severe the disease) (day 28): 0.98
clinical score of arthritis, Mean (the larger the value, the more severe the disease) (day 31): 1.66
clinical score of arthritis, Mean (the larger the value, the more severe the disease) (day 33): 2.39
clinical score of arthritis, Mean (the larger the value, the more severe the disease) (day 35): 2.64
clinical score of arthritis, Mean (the larger the value, the more severe the disease) (day 38): 2.87
clinical score of arthritis, Mean (the larger the value, the more severe the disease) (day 40): 2.87
clinical score of arthritis, Mean (the larger the value, the more severe the disease) (day 42): 3.17
clinical score of arthritis, Mean (the larger the value, the more severe the disease) (day 45): 3.39
